Experiments:
Assay type in all cases: cell-based, mouse
[1] = test system: α7 integrin (LacZ reporter in α7βgal+/− myoblasts); test: Myoblast α7+/LacZ integrin FDG assay (Burkin assay in myoblasts, 96-well); conditions: 96-well; for Burkin Assay in Myoblasts, value relative to DMSO: SU9516 analogs, N=3-6; for Burkin Assay in Myoblasts, signal relative to DMSO: α7+/LacZ myoblasts
[2] = test system: α7 integrin (LacZ reporter in α7+/LacZ myotubes); test: Myotube α7 integrin FDG assay (Burkin assay in myotubes, 96-well); conditions: for Burkin Assay in Myotubes, value relative to DMSO: SU9516 analogs, 96-well, N=3-6
[3] = test system: β-galactosidase in CMV-LacZ C2C12 myoblasts; test: CMV-LacZ secondary screen in C2C12 myoblasts (β-Gal stabilizing assay); conditions: for CMV-LACZ in Myoblasts, value relative to DMSO: SU9516 analogs, C2C12 CMV-LacZ, N=2; for CMV-LACZ in Myoblasts (β-galactosidase activity relative to DMSO): CMV-LacZ C2C12 myoblasts
Procedure, shortened: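 A secondary screen identifies compounds that stabilize β-gal independently of the native promoter, using CMV-LacZ C2C12 cells. Curves span 0.5–40 μM at six levels, in duplicate.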

[4] = test system: β-galactosidase in CMV-LacZ C2C12 myotubes; test: CMV-LacZ secondary screen in C2C12 myotubes (β-Gal stabilizing assay); conditions: for CMV-LACZ in Myotubes, value relative to DMSO: SU9516 analogs, C2C12 CMV-LacZ, N=2; for CMV-LACZ in Myotubes, signal relative to DMSO: C2C12 CMV-LacZ myotubes, fold relative to DMSO
Procedure, shortened: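 β-Gal level was the read-out, measured in a clonal C2C12 line expressing LacZ from a CMV promoter. Dose-response curves used six concentrations, 0.5 μM up to 40 μM, with duplicate points.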

CC(C)Oc1ccc(C(=O)/C=C2/C(=O)Nc3ccccc32)cc1 [MLS001214276-01]
Burkin Assay in Myoblasts, value relative to DMSO ([1]; 0.5 uM): 1.328
Burkin Assay in Myoblasts, value relative to DMSO ([1]; 1 uM): 1.222
Burkin Assay in Myoblasts, value relative to DMSO ([1]; 5 uM): 0.6234
Burkin Assay in Myoblasts, value relative to DMSO ([1]; 10 uM): 0.3235
Burkin Assay in Myoblasts, value relative to DMSO ([1]; 20 uM): 0.2022
Burkin Assay in Myoblasts, value relative to DMSO ([1]; 40 uM): 0.02694
Burkin Assay in Myotubes, value relative to DMSO ([2]; 0.5 uM): 1.162
Burkin Assay in Myotubes, value relative to DMSO ([2]; 1 uM): 1.197
Burkin Assay in Myotubes, value relative to DMSO ([2]; 5 uM): 0.9019
Burkin Assay in Myotubes, value relative to DMSO ([2]; 10 uM): 0.6945
Burkin Assay in Myotubes, value relative to DMSO ([2]; 20 uM): 0.2362
Burkin Assay in Myotubes, value relative to DMSO ([2]; 40 uM): 0.07736
CMV-LACZ in Myoblasts, value relative to DMSO ([3]; 0.5 uM): 0.9516
CMV-LACZ in Myoblasts, value relative to DMSO ([3]; 1 uM): 0.8731
CMV-LACZ in Myoblasts, value relative to DMSO ([3]; 5 uM): 1.3014
CMV-LACZ in Myoblasts, value relative to DMSO ([3]; 10 uM): 1.2231
CMV-LACZ in Myoblasts, value relative to DMSO ([3]; 20 uM): 1.2922
CMV-LACZ in Myoblasts, value relative to DMSO ([3]; 40 uM): 0.1781
CMV-LACZ in Myotubes, value relative to DMSO ([4]; 0.5 uM): 0.7733
CMV-LACZ in Myotubes, value relative to DMSO ([4]; 1 uM): 0.9141
CMV-LACZ in Myotubes, value relative to DMSO ([4]; 5 uM): 2.0151
CMV-LACZ in Myotubes, value relative to DMSO ([4]; 10 uM): 11.1000
CMV-LACZ in Myotubes, value relative to DMSO ([4]; 20 uM): 0.5259
CMV-LACZ in Myotubes, value relative to DMSO ([4]; 40 uM): 0.4976

NC(=O)COc1ccc(C(=O)/C=C2/C(=O)Nc3ccccc32)cc1 [MLS001214300-01]
Burkin Assay in Myoblasts, value relative to DMSO ([1]; 0.5 uM): 1.211
Burkin Assay in Myoblasts, value relative to DMSO ([1]; 1 uM): 0.9366
Burkin Assay in Myoblasts, value relative to DMSO ([1]; 5 uM): 0.8041
Burkin Assay in Myoblasts, value relative to DMSO ([1]; 10 uM): 0.353
Burkin Assay in Myoblasts, value relative to DMSO ([1]; 20 uM): 0.1847
Burkin Assay in Myoblasts, value relative to DMSO ([1]; 40 uM): 0.02593
Burkin Assay in Myotubes, value relative to DMSO ([2]; 0.5 uM): 1.019
Burkin Assay in Myotubes, value relative to DMSO ([2]; 1 uM): 1.039
Burkin Assay in Myotubes, value relative to DMSO ([2]; 5 uM): 1.091
Burkin Assay in Myotubes, value relative to DMSO ([2]; 10 uM): 0.8733
Burkin Assay in Myotubes, value relative to DMSO ([2]; 20 uM): 0.7447
Burkin Assay in Myotubes, value relative to DMSO ([2]; 40 uM): 0.3178
CMV-LACZ in Myoblasts, value relative to DMSO ([3]; 0.5 uM): 1.0446
CMV-LACZ in Myoblasts, value relative to DMSO ([3]; 1 uM): 0.9403
CMV-LACZ in Myoblasts, value relative to DMSO ([3]; 5 uM): 0.7949
CMV-LACZ in Myoblasts, value relative to DMSO ([3]; 10 uM): 1.1047
CMV-LACZ in Myoblasts, value relative to DMSO ([3]; 20 uM): 0.4007
CMV-LACZ in Myoblasts, value relative to DMSO ([3]; 40 uM): 0.1793
CMV-LACZ in Myotubes, value relative to DMSO ([4]; 0.5 uM): 0.9819
CMV-LACZ in Myotubes, value relative to DMSO ([4]; 1 uM): 0.8924
CMV-LACZ in Myotubes, value relative to DMSO ([4]; 5 uM): 1.0550
CMV-LACZ in Myotubes, value relative to DMSO ([4]; 10 uM): 1.0956
CMV-LACZ in Myotubes, value relative to DMSO ([4]; 20 uM): 6.2635
CMV-LACZ in Myotubes, value relative to DMSO ([4]; 40 uM): 0.7118

Cn1c(-c2ccccc2)cc2ccccc21 [MLS001215074-01]
Burkin Assay in Myoblasts, signal relative to DMSO ([1]; 0.5 uM): 1.023
Burkin Assay in Myoblasts, signal relative to DMSO ([1]; 1 uM): 0.9004
Burkin Assay in Myoblasts, signal relative to DMSO ([1]; 5 uM): 0.9431
Burkin Assay in Myoblasts, signal relative to DMSO ([1]; 10 uM): 0.9738
Burkin Assay in Myoblasts, signal relative to DMSO ([1]; 20 uM): 0.7339
Burkin Assay in Myoblasts, signal relative to DMSO ([1]; 40 uM): 0.5974
Burkin Assay in Myotubes, α7 integrin LacZ reporter signal relative to DMSO ([2]; 0.5 uM): 0.7886
Burkin Assay in Myotubes, α7 integrin LacZ reporter signal relative to DMSO ([2]; 1 uM): 0.8307
Burkin Assay in Myotubes, α7 integrin LacZ reporter signal relative to DMSO ([2]; 5 uM): 1.05
Burkin Assay in Myotubes, α7 integrin LacZ reporter signal relative to DMSO ([2]; 10 uM): 1.132
Burkin Assay in Myotubes, α7 integrin LacZ reporter signal relative to DMSO ([2]; 20 uM): 0.7505
Burkin Assay in Myotubes, α7 integrin LacZ reporter signal relative to DMSO ([2]; 40 uM): 0.8488
CMV-LACZ in Myoblasts (β-galactosidase activity relative to DMSO) ([3]; 0.5 uM): 0.7877
CMV-LACZ in Myoblasts (β-galactosidase activity relative to DMSO) ([3]; 1 uM): 0.7800
CMV-LACZ in Myoblasts (β-galactosidase activity relative to DMSO) ([3]; 5 uM): 1.1754
CMV-LACZ in Myoblasts (β-galactosidase activity relative to DMSO) ([3]; 10 uM): 1.0294
CMV-LACZ in Myoblasts (β-galactosidase activity relative to DMSO) ([3]; 20 uM): 1.1277
CMV-LACZ in Myoblasts (β-galactosidase activity relative to DMSO) ([3]; 40 uM): 1.1432
CMV-LACZ in Myotubes, signal relative to DMSO ([4]; 0.5 uM): 0.8752
CMV-LACZ in Myotubes, signal relative to DMSO ([4]; 1 uM): 0.9238
CMV-LACZ in Myotubes, signal relative to DMSO ([4]; 5 uM): 0.8364
CMV-LACZ in Myotubes, signal relative to DMSO ([4]; 10 uM): 0.8583
CMV-LACZ in Myotubes, signal relative to DMSO ([4]; 20 uM): 0.8700
CMV-LACZ in Myotubes, signal relative to DMSO ([4]; 40 uM): 0.9930

Cc1nc(Nc2ccccc2F)c2oc3ccccc3c2n1 [MLS001215123-01]
Burkin Assay in Myoblasts, signal relative to DMSO ([1]; 0.5 uM): 1.075
Burkin Assay in Myoblasts, signal relative to DMSO ([1]; 1 uM): 0.9708
Burkin Assay in Myoblasts, signal relative to DMSO ([1]; 5 uM): 1.1241
Burkin Assay in Myoblasts, signal relative to DMSO ([1]; 10 uM): 1.155
Burkin Assay in Myoblasts, signal relative to DMSO ([1]; 20 uM): 0.665
Burkin Assay in Myoblasts, signal relative to DMSO ([1]; 40 uM): 0.5252
Burkin Assay in Myotubes, α7 integrin LacZ reporter signal relative to DMSO ([2]; 0.5 uM): 0.9466
Burkin Assay in Myotubes, α7 integrin LacZ reporter signal relative to DMSO ([2]; 1 uM): 0.901
Burkin Assay in Myotubes, α7 integrin LacZ reporter signal relative to DMSO ([2]; 5 uM): 1.049
Burkin Assay in Myotubes, α7 integrin LacZ reporter signal relative to DMSO ([2]; 10 uM): 1.137
Burkin Assay in Myotubes, α7 integrin LacZ reporter signal relative to DMSO ([2]; 20 uM): 0.6938
Burkin Assay in Myotubes, α7 integrin LacZ reporter signal relative to DMSO ([2]; 40 uM): 0.816
CMV-LACZ in Myoblasts (β-galactosidase activity relative to DMSO) ([3]; 0.5 uM): 1.0530
CMV-LACZ in Myoblasts (β-galactosidase activity relative to DMSO) ([3]; 1 uM): 0.8837
CMV-LACZ in Myoblasts (β-galactosidase activity relative to DMSO) ([3]; 5 uM): 1.0888
CMV-LACZ in Myoblasts (β-galactosidase activity relative to DMSO) ([3]; 10 uM): 1.1943
CMV-LACZ in Myoblasts (β-galactosidase activity relative to DMSO) ([3]; 20 uM): 1.2639
CMV-LACZ in Myoblasts (β-galactosidase activity relative to DMSO) ([3]; 40 uM): 1.0098
CMV-LACZ in Myotubes, signal relative to DMSO ([4]; 0.5 uM): 1.1657
CMV-LACZ in Myotubes, signal relative to DMSO ([4]; 1 uM): 1.1457
CMV-LACZ in Myotubes, signal relative to DMSO ([4]; 5 uM): 1.1153
CMV-LACZ in Myotubes, signal relative to DMSO ([4]; 10 uM): 1.2929
CMV-LACZ in Myotubes, signal relative to DMSO ([4]; 20 uM): 1.0710
CMV-LACZ in Myotubes, signal relative to DMSO ([4]; 40 uM): 1.1030

CCOc1ccccc1Nc1cc2n(c(=O)n1)CCc1cc(OC)c(OC)cc1-2 [MLS001215294-01]
Burkin Assay in Myoblasts, signal relative to DMSO ([1]; 0.5 uM): 0.9783
Burkin Assay in Myoblasts, signal relative to DMSO ([1]; 1 uM): 1.003
Burkin Assay in Myoblasts, signal relative to DMSO ([1]; 5 uM): 0.7641
Burkin Assay in Myoblasts, signal relative to DMSO ([1]; 10 uM): 0.6141
Burkin Assay in Myoblasts, signal relative to DMSO ([1]; 20 uM): 0.2025
Burkin Assay in Myoblasts, signal relative to DMSO ([1]; 40 uM): 0.2046
Burkin Assay in Myotubes, α7 integrin LacZ reporter signal relative to DMSO ([2]; 0.5 uM): 1.047
Burkin Assay in Myotubes, α7 integrin LacZ reporter signal relative to DMSO ([2]; 1 uM): 1.106
Burkin Assay in Myotubes, α7 integrin LacZ reporter signal relative to DMSO ([2]; 5 uM): 0.8935
Burkin Assay in Myotubes, α7 integrin LacZ reporter signal relative to DMSO ([2]; 10 uM): 0.8216
Burkin Assay in Myotubes, α7 integrin LacZ reporter signal relative to DMSO ([2]; 20 uM): 0.8062
Burkin Assay in Myotubes, α7 integrin LacZ reporter signal relative to DMSO ([2]; 40 uM): 0.8079
CMV-LACZ in Myoblasts (β-galactosidase activity relative to DMSO) ([3]; 0.5 uM): 1.2983
CMV-LACZ in Myoblasts (β-galactosidase activity relative to DMSO) ([3]; 1 uM): 1.2817
CMV-LACZ in Myoblasts (β-galactosidase activity relative to DMSO) ([3]; 5 uM): 0.8138
CMV-LACZ in Myoblasts (β-galactosidase activity relative to DMSO) ([3]; 10 uM): 1.3412
CMV-LACZ in Myoblasts (β-galactosidase activity relative to DMSO) ([3]; 20 uM): 0.3302
CMV-LACZ in Myoblasts (β-galactosidase activity relative to DMSO) ([3]; 40 uM): 0.4116
CMV-LACZ in Myotubes, signal relative to DMSO ([4]; 0.5 uM): 0.8838
CMV-LACZ in Myotubes, signal relative to DMSO ([4]; 1 uM): 1.0800
CMV-LACZ in Myotubes, signal relative to DMSO ([4]; 5 uM): 1.1438
CMV-LACZ in Myotubes, signal relative to DMSO ([4]; 10 uM): 1.4324
CMV-LACZ in Myotubes, signal relative to DMSO ([4]; 20 uM): 1.2800
CMV-LACZ in Myotubes, signal relative to DMSO ([4]; 40 uM): 1.4470
